In brackets after ≈: the same amount, converted by molar mass.
Tests used:
CYP2D6 = CYP2D6 (Homo sapiens, UniProt P10635); test: CYP450 inhibition assay, pooled human liver microsomes, dextromethorphan substrate; conditions: for inhibition at 10 min, 10 µM: both, human, pooled human liver microsomes, pH 7.4, probe dextromethorphan; for CYP 450 Inhibition CYP2D6: at 10 μM
[1] = Stability in human liver microsomes; assay type: in vitro ADME; conditions: half-life
In short: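 Pooled liver microsomes (human mixed gender; male Sprague-Dawley rat; male CD-1 mouse) at final 0.1 mg/mL protein, compound 0.1 μM, 100 mM potassium phosphate pH 7.4, NADPH-initiated, sampled 0–60 min. Parent remaining by HPLC-MS/MS vs time zero; half-life from log-linear slope assuming first-order kinetics, plus Clint.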

CYP2C9 = CYP2C9 (Homo sapiens, UniProt P11712); test: CYP450 inhibition assay, pooled human liver microsomes, diclofenac substrate; conditions: for inhibition at 10 min, 10 µM: both, human, pooled human liver microsomes, pH 7.4, probe diclofenac; for CYP 450 Inhibition CYP2C9: at 10 μM
CYP2C9, sequence (P11712 whole entry): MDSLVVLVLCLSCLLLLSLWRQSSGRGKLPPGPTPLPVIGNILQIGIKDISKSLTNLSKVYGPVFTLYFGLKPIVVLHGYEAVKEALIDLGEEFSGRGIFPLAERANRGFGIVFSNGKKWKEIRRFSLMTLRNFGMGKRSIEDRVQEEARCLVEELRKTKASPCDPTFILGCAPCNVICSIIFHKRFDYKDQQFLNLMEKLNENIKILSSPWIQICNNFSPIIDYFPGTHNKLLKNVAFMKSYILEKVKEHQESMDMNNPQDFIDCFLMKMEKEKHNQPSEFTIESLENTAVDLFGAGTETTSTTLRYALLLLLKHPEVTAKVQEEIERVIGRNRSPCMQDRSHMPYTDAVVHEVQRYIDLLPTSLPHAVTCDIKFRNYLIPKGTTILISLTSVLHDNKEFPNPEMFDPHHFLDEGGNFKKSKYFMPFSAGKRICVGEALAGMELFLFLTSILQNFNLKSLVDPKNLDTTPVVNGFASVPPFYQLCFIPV

CYP2C8 = target: T1, CYP2C8 (Homo sapiens, UniProt P10632); test: CYP450 inhibition assay, pooled human liver microsomes, amodiaquine substrate; conditions: for inhibition at 10 min, 10 µM: both, human, pooled human liver microsomes, pH 7.4, probe amodiaquine; for CYP 450 Inhibition CYP2C8: at 10 μM
T1 sequence (P10632 1-490): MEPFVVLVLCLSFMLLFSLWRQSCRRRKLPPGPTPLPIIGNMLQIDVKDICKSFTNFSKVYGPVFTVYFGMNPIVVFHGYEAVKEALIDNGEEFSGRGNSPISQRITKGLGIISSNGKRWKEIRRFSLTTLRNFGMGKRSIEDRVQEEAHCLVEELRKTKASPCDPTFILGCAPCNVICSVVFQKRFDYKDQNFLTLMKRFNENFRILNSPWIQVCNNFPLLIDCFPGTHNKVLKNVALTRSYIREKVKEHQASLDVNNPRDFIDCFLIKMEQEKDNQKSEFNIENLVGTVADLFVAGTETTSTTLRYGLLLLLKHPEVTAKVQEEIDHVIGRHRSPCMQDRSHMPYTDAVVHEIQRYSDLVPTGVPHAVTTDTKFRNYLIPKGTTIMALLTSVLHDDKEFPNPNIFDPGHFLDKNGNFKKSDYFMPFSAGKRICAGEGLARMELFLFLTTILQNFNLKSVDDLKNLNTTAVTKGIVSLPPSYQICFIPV

human AT1R = target: T2, human AT1R (Homo sapiens, UniProt P30556); assay type: binding; conditions: HEK-293 cell membranes
T2 construct: host or cells: HEK-293
T2 sequence (P30556 1-359): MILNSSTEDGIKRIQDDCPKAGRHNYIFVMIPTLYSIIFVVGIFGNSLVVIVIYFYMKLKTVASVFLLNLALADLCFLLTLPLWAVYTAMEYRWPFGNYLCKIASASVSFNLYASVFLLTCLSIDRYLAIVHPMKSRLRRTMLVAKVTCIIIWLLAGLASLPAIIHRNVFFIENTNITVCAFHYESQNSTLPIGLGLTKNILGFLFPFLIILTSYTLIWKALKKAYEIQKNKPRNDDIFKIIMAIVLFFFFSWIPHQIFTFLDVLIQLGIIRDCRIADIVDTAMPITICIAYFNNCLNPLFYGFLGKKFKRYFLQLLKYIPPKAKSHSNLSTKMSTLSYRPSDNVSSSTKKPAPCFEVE

CYP2C19 = CYP2C19 (Homo sapiens, UniProt P33261); test: CYP450 inhibition assay, pooled human liver microsomes, omeprazole substrate; conditions: for inhibition at 10 min, 10 µM: both, human, pooled human liver microsomes, pH 7.4, probe omeprazole; for CYP 450 Inhibition CYP2C19: at 10 μM
CYP2C19, sequence (P33261 whole entry): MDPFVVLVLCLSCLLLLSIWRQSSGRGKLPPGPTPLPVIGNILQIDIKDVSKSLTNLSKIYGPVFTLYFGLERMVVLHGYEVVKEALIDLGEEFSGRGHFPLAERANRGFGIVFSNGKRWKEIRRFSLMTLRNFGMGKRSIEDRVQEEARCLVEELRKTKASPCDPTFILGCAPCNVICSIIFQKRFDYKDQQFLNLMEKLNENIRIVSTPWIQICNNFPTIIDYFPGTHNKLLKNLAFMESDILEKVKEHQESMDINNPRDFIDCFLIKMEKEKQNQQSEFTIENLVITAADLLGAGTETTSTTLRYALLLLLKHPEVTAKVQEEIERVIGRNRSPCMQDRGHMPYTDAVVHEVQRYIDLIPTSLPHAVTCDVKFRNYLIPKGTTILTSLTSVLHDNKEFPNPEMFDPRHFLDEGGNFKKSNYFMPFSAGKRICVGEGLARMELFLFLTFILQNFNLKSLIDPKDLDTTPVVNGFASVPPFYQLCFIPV

[2] = Stability in rat liver microsomes; assay type: in vitro ADME; conditions: half-life
Method: Stability in liver microsomes. Human, mouse and rat liver microsomes were used to assess the metabolic stability for the compounds. Metabolic stability was determined in 0.5 mg/mL human, mouse or rat liver microsomes at a compound concentration of 1 μM in 100 mM potassium phosphate buffer (pH 7.4) in a total incubation volume of 500 μL by Eurofins. The assay matrix was: human liver microsomes: mixed gender and pool of 50, rat liver microsomes: male, Sprague-Dawley, pool of 100 or more and mouse liver microsomes: male,CD-1, pool of 250 or more. Final microsomal protein concentration: 0.1mg/mL. The test concentration was 0.1 μM with 0.01% DMSO, 0.25% acetonitrile and 0.25% methanol by default. […] The reaction was initiated by adding NADPH-generating system and was incubated for 0, 15, 30, 45, and 60 min. The reaction was stopped by transferring the incubation mixture to acetonitrile/methanol. Samples were then mixed and centrifuged. Four reference compounds were tested in each assay. Propranolol and imipramine are relatively stable, whereas verapamil and terfenadine are readily metabolized inhuman liver microsomes. Samples were analyzed by HPLC-MS/MS using selected reaction monitoring. The HPLC system consisted of a binary LC pump with autosampler, a C-18 column, and a gradient. Peak areas corresponding to the test compound were recorded. The compound remaining was calculated by comparing the peak area at each time point to time zero. The half-life was calculated from the slope of the initial linear range of the logarithmic curve of compound remaining (%) vs. time, assuming first order kinetics. In addition, the intrinsic clearance (Clint) was calculated.^19,20

[3] = Kinetic solubility in PBS pH 7.4; assay type: physicochemical; conditions: Dulbecco's PBS buffer, aqueous buffer, kinetic from dmso stock; PBS pH 7.4, 24 h room temperature, 2% DMSO
Method: Kinetic solubility. Dulbecco's PBS buffer was used (NaCl 137 mM, KCl 2.7 mM, Na2HPO4 8.1 mM, KH2PO4 1.5 mM with pH 7.4). The test compound is prepared at 200 μM in the PBS buffer from a 10 mM DMSO stock solution. The final DMSO concentration is 2%. The buffer samples were mixed thoroughly followed by incubation at room temperature for 24 h. At the end of the incubation, the buffer samples were centrifuged and supernatants were then injected for the HPLC analysis. A calibration standard of the test compound was prepared at 200 μM in methanol/water (3/2, v/v) from a 10 mM DMSO stock solution on the day of HPLC analysis. The analysis was conducted by HPLC-UV/VIS with photodiode array detection, with monitoring at 205, 230, 260, and 300 nm wavelengths. The HPLC system consisted of a C18 column using a gradient of A and B (A=12 mM ammonium formate, 6 mM formic acid in water, pH 4.0, B=6 mM ammonium formate, 3 mM formic acid acetonitrile/water (9/1, v/v)). Reference compounds used were metoprolol, rifampicin, ketoconazole, phenytoin, haloperidol, simvastatin, diethylstilbestrol, and tamoxifen, ranking from fully soluble (200 μM) to poorly soluble (<1μM). […] The range of the assay was approximately 0.5 μM to 200 μM. The chromatographic purity (%) was determined as the peak area of the principal peak relative to the total integrated peak areas in the HPLC chromatogram of the calibration standard.

CYP2D6, sequence (P10635 whole entry): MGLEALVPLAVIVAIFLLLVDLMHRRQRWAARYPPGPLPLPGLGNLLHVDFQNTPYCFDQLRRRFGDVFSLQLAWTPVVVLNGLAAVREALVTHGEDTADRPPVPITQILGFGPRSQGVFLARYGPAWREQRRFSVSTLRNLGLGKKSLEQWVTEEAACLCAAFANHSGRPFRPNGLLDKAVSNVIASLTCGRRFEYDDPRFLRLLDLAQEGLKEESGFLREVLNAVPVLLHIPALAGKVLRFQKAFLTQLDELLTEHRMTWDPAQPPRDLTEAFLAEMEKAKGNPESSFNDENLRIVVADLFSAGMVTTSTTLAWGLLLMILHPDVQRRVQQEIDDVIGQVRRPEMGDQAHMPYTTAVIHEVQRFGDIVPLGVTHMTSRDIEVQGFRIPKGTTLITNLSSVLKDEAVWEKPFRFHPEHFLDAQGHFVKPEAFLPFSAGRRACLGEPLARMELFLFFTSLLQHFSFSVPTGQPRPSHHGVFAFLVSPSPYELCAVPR

SMILES	inhibition at 10 min, 10 µM (CYP2D6)	Stability in liver microsomes HLM [1]	inhibition at 10 min, 10 µM (CYP2C9)	inhibition at 10 min, 10 µM (CYP2C8)	Ki (human AT1R)	inhibition at 10 min, 10 µM (CYP2C19)	Stability in liver microsomes RLM [2]	solubility kinetic at 24 h [3]	CYP 450 Inhibition CYP2D6 (CYP2D6)	CYP 450 Inhibition CYP2C9 (CYP2C9)	CYP 450 Inhibition CYP2C8 (CYP2C8)	CYP 450 Inhibition CYP2C19 (CYP2C19)
COC(=O)NS(=O)(=O)c1ccc(CC(C)C)cc1-c1ccc(Cn2ccnc2C(C)(C)C)cc1 [Example 1A, Methyl ((4′-((2-(tert-butyl)-1H-imidazol-1-yl)methyl)-5-isobutyl-[1,1′-biphenyl]-2-yl)sulfonyl)carbamate]	9%	>60 min	37%	67%	~1 µM	38%	>60 min	140 µM (≈ 67.7 µg/mL)				
COC(=O)NS(=O)(=O)c1sc(CC(C)C)nc1-c1ccc(Cn2ccnc2C(C)(C)C)cc1 [Example 3, Methyl ((4-(4-((2-(tert-butyl)-1H-imidazol-1-yl)methyl)phenyl)-2-isobutylthiazol-5-yl)sulfonyl) carbamate]		>60 min			~1 µM		>60 min	195 µM (≈ 95.7 µg/mL)	12%	23%	26%	38%
CCCCOC(=O)NS(=O)(=O)c1sc(CC(C)C)nc1-c1ccc(Cn2ccnc2C(C)(C)C)cc1 [Example 4, Butyl ((4-(4-((2-(tert-butyl)-1H-imidazol-1-yl)methyl)phenyl)-2-isobutylthiazol-5-yl)sulfonyl) carbamate]		45 min			~1 µM		12 min	180 µM (≈ 95.9 µg/mL)	12%	68%	70%	66%
COC(=O)[N-]S(=O)(=O)c1ccc(CC(C)C)cc1-c1ccc(Cn2ccnc2C(C)(C)O)cc1.[K+] [Example 8B, Potassium ((4′-((2-(2-hydroxypropan-2-yl)-1H-imidazol-1-yl)methyl)-5-isobutyl-[1,1′-biphenyl]-2-yl)sulfonyl)(methoxycarbonyl)amide]	2.5%	>60 min	92%	64%	~1 µM	45%	41 min	> 200 µM				
CCCCOC(=O)[N-]S(=O)(=O)c1sc(CC(C)C)cc1-c1ccc(Cn2ccnc2C(C)(C)C)cc1.[K+] [Example 11B, Potassium (butoxycarbonyl)((3-(4-((2-(tert-butyl)-1H-imidazol-1-yl)methyl)phenyl)-5-isobutylthiophen-2-yl)sulfonyl)amide]	14%	11 min	88%	81%	~1 µM	66%	18 min	> 200 µM				
